# Measured values from patent publication US7604947B2, “Detection and modulation of cancer stem cells” (Cornell Research Foundation, Inc., priority 2004, dated 2009).
# “Also recorded” adds a separate entry of the source.
# Legend:
# [1] = tested on: human REX-1 protein; experiment: Western blot of human REX-1 protein after retinoic acid treatment, MDA-MB-468 cells; assay type: cell-based; conditions: RA 1 μM for 48 hours
# Text: (§1) The following human carcinoma and leukemia cell lines were maintained as directed by the ATCC: breast cancer cells: MCF-7, MDA-MB-231, MDA-MB-453, MDA-MB-468, SK-BR3 and HS578T; prostate cancer cells: LnCAP; skin cancer cells: SCC-12, SCC-13; kidney cancer cells: SK-39; bladder cancer cells: HTB1, HT1376, HTB9; oral cavity (head and neck) cancer: SCC-4, SCC-9, SCC-25, SCC-15; leukemia cells: HL-60, NB4 and NTERA2 teratocarcinoma cells. Normal human mammary (HMEC); renal proximal tubule epithelial cells (RPTE); prostate epithelial cells (PrEC), keratinocytes (NHEK) and lung (NHBE, SAEC) epithelial cells were grown as directed by the supplier (Cambrex, Walkersville, Md.). Normal human keratinocytes were also purchased from Cascade Biologics (Portland, Oreg.) and cultured as directed. Non-tumorous bladder cancer samples were provided by Dr. Stephen Boorjian (Weill Medical College, Cornell University, NY, N.Y.) and are as described in Boorjian, S, Tickoo, S K, Mongan, N P et al. Reduced Lecithin:Retinol Acyltransferase (LRAT) Expression Correlates with Increased Pathologic Tumor Stage in Bladder Cancer. Clinical Cancer Research 2004; 10:In press. Normal and All-trans-retinoic acid (RA) (Sigma, St. Louis, Mo.) was dissolved in ethanol and used at a final concentration of 20 nM or 1 μM as indicated in the descriptions of the figures. […]
# [2] = tested on: human REX-1 protein; experiment: Western blot of human REX-1 protein after retinoic acid treatment, HEKa cells; assay type: cell-based; conditions: RA 1 μM for 48 hours
# Text: as §1
# [3] = tested on: hRex1; experiment: RT-PCR of hRex1 expression after retinoic acid treatment; assay type: cell-based, human; conditions: MDA-MB-468 cells
# [4] = tested on: polyclonal rabbit anti-human REX-1 antibody; experiment: Immunohistochemistry peptide competition of anti-REX-1 antibody staining in normal renal parenchyma; assay type: binding; conditions: 1 μg/mL free peptide, normal renal parenchyma sections
# Method: Paraffin-embedded sections. Five micron tissue sections were cut from the patient blocks, and the sections were deparaffinized in Histoclear™(National Diagnostics, Atlanta, Ga.) followed by rehydration in a graded series of ethanol. Antigen retrieval was performed by heat with the Antigen Unmasking Solution (Vector Laboratories, Burlingame, Calif.) in a pressure cooker for 8 minutes. A 3% solution of H2O2 was used to quench the endogenous peroxidase activity (15 minute incubation). […] This was followed by incubation with the affinity-purified, polyclonal rabbit antihuman REX-1 primary antibody diluted 1:5 in 1.5% goat serum for 45-60 min. at room temperature, and then with 100 μL of horseradish peroxidase (HRP) conjugated goat anti-rabbit secondary antibody (SuperPicture, Zymed, San Francisco, Calif.) for 30 minutes at room temperature. Color was developed with the 3,3′-diaminobenzidine chromogen substrate, followed by counterstaining with hematoxylin (Vector). The negative control normal and tumor sections were treated identically to all other sections, with the exception that 1.5% normal goat serum was used in place of the primary antibody. […] All samples were analyzed using this identical protocol with the same reagents. The staining procedures were repeated at least three times with similar results.
molecule,measurement,setting,value
"CC1=C(/C=C/C(C)=C/C=C/C(C)=C/C(=O)O)C(C)(C)CCC1 [RA, All-trans-retinoic acid]",level of human REX-1 protein following RA treatment,[1],did not alter; also recorded: unaltered
same,level of human REX-1 protein following RA treatment,[2],did not alter; also recorded: unaltered
same,expression of hRex1 following RA treatment,[3],not reduced
same,expression of hRex1 following RA treatment,[3]; listed as retinoic acid,does not decrease
SNNLKAHILTHANTNKNEQEGK (listed as Homo sapiens) [free human REX-1 peptide],REX-1 antibody staining in presence of free peptide,[4],staining was eliminated
